# Reference: EP4620304A1, “FORMULATION COMPRISING CLOMAZONE AND DIURON” (Adama Agan Ltd., priority 2024, dated 2025)
# Where two headings read alike, the source gives them in different places.
# Experiment: Solubility in clomazone or propylene glycol by visual verification (turbidity)
# Format: physicochemical
# Settings: organic solvent or mixture, thermodynamic from solid
# Procedure: All solubilities mentioned in the present document were measured through visual verification. In a known quantity of clomazone or propylene glycol at a desired temperature, the solute (e.g. hexazinone or diuron) was added at a rate of 0.2g/5min.
Compound,"solubility (23 °C, Solubility of Hexazinone in Clomazone) [mg/mL]","solubility (23 °C, Solubility of Hexazinone in Propileneglycol) [mg/mL]","solubility (40 °C, Solubility of Hexazinone in Clomazone) [mg/mL]","solubility (40 °C, Solubility of Hexazinone in Propileneglycol) [mg/mL]","solubility (54 °C, Solubility of Hexazinone in Clomazone) [mg/mL]","solubility (54 °C, Solubility of Hexazinone in Propileneglycol) [mg/mL]","solubility (23 °C, 23 °C, read-out: Solubility of Diuron in Clomazone) [mg/mL]","solubility (40 °C, 40 °C, read-out: Solubility of Diuron in Clomazone) [mg/mL]","solubility (54 °C, 54 °C, read-out: Solubility of Diuron in Clomazone) [mg/mL]"
CN(C)c1nc(=O)n(C2CCCCC2)c(=O)n1C [Hexazinone],53,510,62,580,73,630,,,
CN(C)C(=O)Nc1ccc(Cl)c(Cl)c1 [Diuron],,,,,,,28,36,61
